Measured values published in patent EP4600243A2, “NOVEL BICYCLIC HETEROCYCLYL COMPOUNDS AND USE THEREOF” (Jeil Pharmaceutical Co., Ltd., priority 2022, dated 2024).

target: T1, protein-protein interaction between SOS1 and KRAS G12C (Homo sapiens, UniProt Q07889); assay: KRAS::SOS1 HTRF binding analysis (KRAS G12C/SOS1 binding kit); settings: compound at 0.1 uM
T1 construct: purchased Cisbio 64KRASG12PEG
T1 sequence (Q07889 1-1333): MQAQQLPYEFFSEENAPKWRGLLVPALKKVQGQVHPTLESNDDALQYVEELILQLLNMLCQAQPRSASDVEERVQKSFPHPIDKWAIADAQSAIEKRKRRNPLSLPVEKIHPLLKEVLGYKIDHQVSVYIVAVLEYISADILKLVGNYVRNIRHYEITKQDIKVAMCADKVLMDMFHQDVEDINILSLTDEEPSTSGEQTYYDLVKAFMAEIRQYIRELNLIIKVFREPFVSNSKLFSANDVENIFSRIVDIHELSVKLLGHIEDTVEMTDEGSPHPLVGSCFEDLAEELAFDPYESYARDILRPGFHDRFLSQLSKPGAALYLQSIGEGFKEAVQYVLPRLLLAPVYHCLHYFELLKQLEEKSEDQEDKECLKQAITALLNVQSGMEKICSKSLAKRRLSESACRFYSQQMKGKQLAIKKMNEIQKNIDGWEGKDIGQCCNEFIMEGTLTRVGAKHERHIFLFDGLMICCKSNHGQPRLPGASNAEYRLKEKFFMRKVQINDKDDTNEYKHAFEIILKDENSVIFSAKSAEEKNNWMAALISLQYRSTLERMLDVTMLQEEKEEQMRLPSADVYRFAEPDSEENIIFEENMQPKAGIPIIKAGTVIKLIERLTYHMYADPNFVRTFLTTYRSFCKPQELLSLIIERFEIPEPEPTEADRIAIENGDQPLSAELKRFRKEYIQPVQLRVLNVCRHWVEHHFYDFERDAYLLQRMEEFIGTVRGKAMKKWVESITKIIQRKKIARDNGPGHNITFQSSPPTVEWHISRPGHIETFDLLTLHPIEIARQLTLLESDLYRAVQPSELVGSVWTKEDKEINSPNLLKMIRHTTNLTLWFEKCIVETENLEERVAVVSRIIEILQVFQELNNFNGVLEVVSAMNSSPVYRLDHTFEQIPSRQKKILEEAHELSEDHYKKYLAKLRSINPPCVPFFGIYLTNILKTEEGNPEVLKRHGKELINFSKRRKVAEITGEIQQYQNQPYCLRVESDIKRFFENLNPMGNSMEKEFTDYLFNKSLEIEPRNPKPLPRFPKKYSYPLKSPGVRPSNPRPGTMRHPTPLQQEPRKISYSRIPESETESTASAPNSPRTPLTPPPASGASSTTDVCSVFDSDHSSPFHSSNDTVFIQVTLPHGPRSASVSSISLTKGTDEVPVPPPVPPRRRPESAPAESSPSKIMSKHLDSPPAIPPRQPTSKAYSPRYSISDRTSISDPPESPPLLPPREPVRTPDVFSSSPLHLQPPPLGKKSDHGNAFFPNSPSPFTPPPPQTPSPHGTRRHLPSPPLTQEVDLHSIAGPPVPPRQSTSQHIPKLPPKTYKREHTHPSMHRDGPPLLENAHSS
Description: 1-1. KRAS::SOS1 HTRF binding analysis
An SOS1 inhibitory ability of the example compounds of the present invention was confirmed by identifying the effect of inhibiting a protein-protein interaction between SOS1 and KRAS G12C of the compounds according to examples of the present invention.
Specifically, a KRAS G12C/SOS1 binding kit (64KRASG12PEG, Cisbio, France) was purchased and used. 2 µℓ of Tag1-KRAS G12C and 2 µℓ of GTP were premixed and dispensed 4 µl each into a 384 well plate (6007290, PerkinElmer, USA). 2 µℓ of the compound and 4 µℓ of Tag2-SOS1 were placed and then 10 µℓ of premixed Anti-Tag1 XL665 antibody and Anti-Tag2 Tb cryptate antibody was dispensed to each well. The plates were sealed and allowed to react at room temperature for one hour and 40 minutes, and then 665 nm wavelength and 620 nm wavelength were measured using a HTRF® compatible reader (Synergy H4, BioTeK, USA), and the ratio of receptor and donor emission signals for each well was calculated as 665 nm/620 nm×10^4.
(+++: more than 70 to 100% inhibition, ++: more than 40 to 70% inhibition, +: 0 to 40% inhibition) [Table 4]

| SMILES | inhibition at 0.1 µM [%] |
| --- | --- |
| CC(=O)N1CC=C(c2ccc3nncc(N[C@H](C)c4cccc(C(F)F)c4F)c3c2)CC1 [Example 1, (R)-1-(4-(4-(1-(3-(difluoromethyl)-2-fluorophenyl)ethylamino)cinnolin-6-yl)-5,6-dihydropyridin-1(2H)-yl)ethanone] | 0 to 40 |
| C[C@@H](Nc1cnnc2ccc(C3=CCN(C)CC3)cc12)c1cccc(C(F)F)c1F [Example 3, (R)-N-(1-(3-(difluoromethyl)-2-fluorophenyl)ethyl)-6-(1-methyl-1,2,3,6-tetrahydropyridin-4-yl)cinnolin-4-amine] | 70 to 100 |
| C[C@@H](Nc1cnnc2ccc(C3=CCOCC3)cc12)c1cccc(C(F)F)c1F [Example 4, (R)-N-(1-(3-(difluoromethyl)-2-fluorophenyl)ethyl)-6-(3,6-dihydro-2H-pyran-4-yl)cinnolin-4-amine] | 0 to 40 |
| C[C@@H](Nc1cnnc2ccc(N3CCC(N(C)C)CC3)cc12)c1cccc(C(F)F)c1F [Example 6, (R)-N-(1-(3-(difluoromethyl)-2-fluorophenyl)ethyl)-6-(4-(dimethylamino)piperidin-1-yl)cinnolin-4-amine] | 40 to 70 |
| C[C@@H](Nc1cnnc2ccc(N3CC4(CN(C)C4)C3)cc12)c1cccc(C(F)F)c1F [Example 7, (R)-N-(1-(3-(difluoromethyl)-2-fluorophenyl)ethyl)-6-(6-methyl-2,6-diazaspiro[3.3]heptan-2-yl)cinnolin-4-amine] | 70 to 100 |
| C[C@@H](Nc1cnnc2ccc(N3CCN(C4COC4)CC3)cc12)c1cccc(C(F)F)c1F [Example 8, (R)-N-(1-(3-(difluoromethyl)-2-fluorophenyl)ethyl)-6-(4-(oxetan-3-yl)piperazin-1-yl)cinnolin-4-amine] | 0 to 40 |
| C[C@@H](Nc1cnnc2ccc(N3CCN4CCOC[C@@H]4C3)cc12)c1cccc(C(F)F)c1F [Example 9, N-((R)-1-(3-(difluoromethyl)-2-fluorophenyl)ethyl)-6-((S)-hexahydropyrazino[2,1-c][1,4]oxazin-8(1H)-yl)cinnolin-4-amine] | 40 to 70 |
| C[C@@H](Nc1cnnc2ccc(N3CCOCC3)cc12)c1cccc(C(F)F)c1F [Example 10, (R)-N-(1-(3-(difluoromethyl)-2-fluorophenyl)ethyl)-6-morpholinocinnolin-4-amine] | 0 to 40 |
| C[C@@H](Nc1cnnc2ccc(N3CC4(COC4)C3)cc12)c1cccc(C(F)F)c1F [Example 11, (R)-N-(1-(3-(difluoromethyl)-2-fluorophenyl)ethyl)-6-(2-oxa-6-azaspiro[3.3]heptan-6-yl)cinnolin-4-amine] | 0 to 40 |
| C[C@@H](Nc1cnnc2ccc(N3CC4CC(C3)O4)cc12)c1cccc(C(F)F)c1F [Example 12, 6-(6-oxa-3-azabicyclo[3.1.1]heptan-3-yl)-N-((R)-1-(3-(difluoromethyl)-2-fluorophenyl)ethyl)cinnolin-4-amine] | 40 to 70 |
| C[C@@H](Nc1cnnc2ccc(N3C[C@H]4C[C@@H]3CO4)cc12)c1cccc(C(F)F)c1F [Example 13, 6-((1R,4R)-2-oxa-5-azabicyclo[2.2.1]heptan-5-yl)-N-((R)-1-(3-(difluoromethyl)-2-fluorophenyl)ethyl)cinnolin-4-amine] | 40 to 70 |
| C[C@@H](Nc1cnnc2ccc(N3C[C@@H]4C[C@H]3CO4)cc12)c1cccc(C(F)F)c1F [Example 14, 6-((1S,4S)-2-oxa-5-azabicyclo[2.2.1]heptan-5-yl)-N-((R)-1-(3-(difluoromethyl)-2-fluorophenyl)ethyl)cinnolin-4-amine] | 0 to 40 |
| C[C@@H](Nc1cnnc2ccc(N3C4CCC3COC4)cc12)c1cccc(C(F)F)c1F [Example 15, 6-(3-oxa-8-azabicyclo[3.2.1]octan-8-yl)-N-((R)-1-(3-(difluoromethyl)-2-fluorophenyl)ethyl)cinnolin-4-amine] | 0 to 40 |
| C[C@@H](Nc1cnnc2ccc(N3CC4CCC(C3)O4)cc12)c1cccc(C(F)F)c1F [Example 16, 6-(8-oxa-3-azabicyclo[3.2.1]octan-3-yl)-N-((R)-1-(3-(difluoromethyl)-2-fluorophenyl)ethyl)cinnolin-4-amine] | 0 to 40 |
| C[C@@H](Nc1cnnc2ccc(N3CCSCC3)cc12)c1cccc(C(F)F)c1F [Example 17, (R)-N-(1-(3-(difluoromethyl)-2-fluorophenyl)ethyl)-6-thiomorpholinocinnolin-4-amine] | 0 to 40 |
| C[C@@H](Nc1cnnc2ccc(N3CCC(O)CC3)cc12)c1cccc(C(F)F)c1F [Example 18, (R)-1-(4-((1-(3-(difluoromethyl)-2-fluorophenyl)ethyl)amino)cinnolin-6-yl)piperidin-4-ol] | 70 to 100 |
| C[C@@H](Nc1cnnc2ccc(N3CCC(C)(O)CC3)cc12)c1cccc(C(F)F)c1F [Example 19, (R)-1-(4-((1-(3-(difluoromethyl)-2-fluorophenyl)ethyl)amino)cinnolin-6-yl)-4-methylpiperidin-4-ol] | 40 to 70 |

Other lines, results leading:

| inhibition at 0.1 µM [%] | SMILES |
| --- | --- |
| 0 to 40 | C[C@@H](Nc1cnnc2ccc(N3CCC[C@@H](O)C3)cc12)c1cccc(C(F)F)c1F [Example 20, (R)-1-(4-(((R)-1-(3-(difluoromethyl)-2-fluorophenyl)ethyl)amino)cinnolin-6-yl)piperidin-3-ol] |
| 40 to 70 | C[C@@H](Nc1cnnc2ccc(N3CCC[C@H](O)C3)cc12)c1cccc(C(F)F)c1F [Example 21, (S)-1-(4-(((R)-1-(3-(difluoromethyl)-2-fluorophenyl)ethyl)amino)cinnolin-6-yl)piperidin-3-ol] |
| 0 to 40 | COC1CCN(c2ccc3nncc(N[C@H](C)c4cccc(C(F)F)c4F)c3c2)CC1 [Example 22, (R)-N-(1-(3-(difluoromethyl)-2-fluorophenyl)ethyl)-6-(4-methoxypiperidin-1-yl)cinnolin-4-amine] |
| 0 to 40 | CO[C@@H]1CCCN(c2ccc3nncc(N[C@H](C)c4cccc(C(F)F)c4F)c3c2)C1 [Example 23, N-((R)-1-(3-(difluoromethyl)-2-fluorophenyl)ethyl)-6-((R)-3-methoxypiperidin-1-yl)cinnolin-4-amine] |
| 0 to 40 | CO[C@H]1CCCN(c2ccc3nncc(N[C@H](C)c4cccc(C(F)F)c4F)c3c2)C1 [Example 24, N-((R)-1-(3-(difluoromethyl)-2-fluorophenyl)ethyl)-6-((S)-3-methoxypiperidin-1-yl)cinnolin-4-amine] |
| 0 to 40 | C[C@@H](Nc1cnnc2ccc(N3CC[C@@H](F)C3)cc12)c1cccc(C(F)F)c1F [Example 25, N-((R)-1-(3-(difluoromethyl)-2-fluorophenyl)ethyl)-6-((R)-3-fluoropyrrolidin-1-yl)cinnolin-4-amine] |
| 0 to 40 | C[C@@H](Nc1cnnc2ccc(N3CC[C@H](F)C3)cc12)c1cccc(C(F)F)c1F [Example 26, N-((R)-1-(3-(difluoromethyl)-2-fluorophenyl)ethyl)-6-((S)-3-fluoropyrrolidin-1-yl)cinnolin-4-amine] |
| 40 to 70 | C[C@@H](Nc1cnnc2ccc(N3CC[C@@H](O)C3)cc12)c1cccc(C(F)F)c1F [Example 27, (R)-1-(4-(((R)-1-(3-(difluoromethyl)-2-fluorophenyl)ethyl)amino)cinnolin-6-yl)pyrrolidin-3-ol] |
